From patent US20070037179A1, “Methods of diagnosing and prognosticating solid tumors and melanoma” (priority 2004, published 2007) come the findings set out here.

In assay [1] the target is T1, A3 adenosine receptors (Homo sapiens, UniProt P0DMS8).
T1 sequence (P0DMS8 1-318): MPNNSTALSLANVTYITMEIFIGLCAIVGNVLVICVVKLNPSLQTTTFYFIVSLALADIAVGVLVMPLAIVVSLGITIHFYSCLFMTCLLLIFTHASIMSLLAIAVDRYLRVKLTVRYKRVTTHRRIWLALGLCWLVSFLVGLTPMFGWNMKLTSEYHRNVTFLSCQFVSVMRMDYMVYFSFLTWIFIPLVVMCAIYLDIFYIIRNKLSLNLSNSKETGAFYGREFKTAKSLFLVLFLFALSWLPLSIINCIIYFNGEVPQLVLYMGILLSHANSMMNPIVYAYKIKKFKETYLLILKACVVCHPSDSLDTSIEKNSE
Kind of assay: [3H]MRE 3008F20 saturation binding to membranes of peripheral blood lymphocytes and neutrophils. Details: endogenous in cells; host or cells: neutrophils and lymphocytes from peripheral venous blood of colorectal cancer patients and healthy volunteers. The note with it: N=3. The protocol: (§1) Non-specific binding was determined in the presence of 1 μM MRE 3008F20. Bound and free radioactivity were separated, after an incubation time of 120 min at 4° C., by filtering the assay mixture using a Brandel cell harvester. The protein concentration was determined according to a Bio Rad method (26). Binding to A1 and A2A adenosine receptors was performed using [^3H]1,3-dipropyl-8-cyclopentyl-xanthine ([^3H]DPCPX) and [^3H]4-(2-[7-amino-2-(2-furyl)-[1,2,4]triazolo-[2,32][1,3,6]triazinyl-amino]ethyl)-phenol ([^3H]ZM 241385), respectively, as previously described (16, 24).
(§2) Data and statistical analysis. A weighted nonlinear least squares curve fitting program, LIGAND was used for computer analysis of the data from saturation experiments (28). Significant differences between control and patients with colorectal cancer were assessed using Student's t-test or analysis of variance (ANOVA) and the Dunnett's test when required. P<0.05 was considered significant. All data are reported as means±SEM.

For assay [2], the target named is T1, A3 adenosine receptors. Put plainly: [3H]MRE 3008F20 saturation binding to colonic membranes. The arrangement: Colon cancer tissues and related mucosa were homogenized in PBS buffer with a Polytron (Kinematica) and centrifuged; from tissue; host or cells: surgical specimens of human colorectal carcinoma, adenoma and adjacent/remote normal colonic mucosa. Here is the method:
PREPARATION OF COLONIC MEMBRANE SUSPENSIONS. Colon cancer tissues and related mucosa were homogenized in PBS buffer with a Polytron (Kinematica) and centrifuged for 15 min at 48,000 g. The membrane pellet was resuspended in 50 mM Tris/HCl buffer pH 7.4 (50 mM Tris/HCl, 10 mM MgCl2, 1 mM EDTA) and incubated with 3 IU/ml of adenosine deaminase for 30 min at 37° C. This suspension was used for binding experiments.
as §1, §2

As for `CCCn1cc2c(nc(NC(=O)Nc3ccc(OC)cc3)n3nc(-c4ccco4)nc23)n1` [[^3H]MRE 3008F20, 5-N-(4-methoxyphenyl-carbamoyl)amino-8-propyl-2(2furyl)-pyrazolo-[4,3 e]-1,2,4-triazolo [1,5-c]pyrimidine], the Bmax at A3 adenosine receptors [1] (lymphocytes of patients with small adenomas) was 106±15 fmol/mg of protein; at A3 adenosine receptors [1] (neutrophils of patients with small adenomas), 547±77 fmol/mg of protein; at A3 adenosine receptors [2] (adjacent normal (AN) mucosa, 2 cm from tumor), 295±20 fmol/mg of protein; at A3 adenosine receptors [2] (colonic membranes from 14 patients operated for non-neoplastic large bowel disease), 163±10 fmol/mg of protein; on A3 adenosine receptors [2] (large adenomas with high-grade dysplasia, N=4), 302±15 fmol/mg of protein; at A3 adenosine receptors [2] (remote normal (RN) mucosa, 10 cm from tumor) it was 196±10 fmol/mg of protein. Besides, the Bmax at A3 adenosine receptors [2] (small adenomas with low-grade dysplasia, N=4) is given as 155±24 fmol/mg of protein; on A3 adenosine receptors [2] (tumor tissues, 73 primary colorectal carcinomas, mean±SEM), 584±35 fmol/mg of protein.
